Measurements from paper PMC8480901 (PLoS ONE, 2021).
Values joined by “and” are separate entries in the source; they are usually repeats but may differ in a detail not shown here. Equal values may be shown once.

System: J774.2 mouse macrophages
Assay: LPS-induced cytokine and chemokine levels in J774.2 mouse macrophage cell supernatant (ELISA)
Type: cell-based
Settings: LPS; for TNF-α / CCl2, % reduction / CCl2, Mean / GM-CSF % reduction / GM-CSF Mean / IL-1β % reduction / IL-1β Mean / IL-6 % reduction / IL-6 Mean / TNF-α % reduction / TNF-α Mean / CCl2 / CXCL1 / GM-CSF / IL-1β / IL-6: J774.2 supernatant; for TNF-α / CCl2 / CXCL1 / GM-CSF / IL-1β / IL-6 / CXCL2 / MMP9: individual replicate; for CXCL2 / MMP9: J774.2 cells

Structure (SMILES): C=C[C@]1(C)C[C@@H](OC(=O)CS[C@@H]2CC[C@@H](N)C[C@H]2O)[C@]2(C)[C@H](C)CC[C@]3(CCC(=O)[C@H]32)[C@@H](C)[C@@H]1O [Lefamulin]
- TNF-α (0.3 µM): 1489.0 pg/mL and 1477.5 pg/mL
- CCl2, % reduction (1 µM): -9%
- CCl2, Mean (1 µM): 39289 pg/mL
- GM-CSF % reduction (1 µM): 60%
- GM-CSF Mean (1 µM): 564 pg/mL
- IL-1β % reduction (1 µM): -12%
- IL-1β Mean (1 µM): 213 pg/mL
- IL-6 % reduction (1 µM): 0.856%
- IL-6 Mean (1 µM): 76721 pg/mL
- TNF-α % reduction (1 µM): -11%
- TNF-α Mean (1 µM): 1515 pg/mL
- CCl2 (1 µM): 38237.3 pg/mL and 40341.1 pg/mL
- CXCL1 (1 µM): 25.5 pg/mL and 26.1 pg/mL
- GM-CSF (1 µM): 597.3 pg/mL and 530.6 pg/mL
- IL-1β (1 µM): 223.29 pg/mL and 203.668 pg/mL
- IL-6 (1 µM): 75165 pg/mL and 78277 pg/mL
- TNF-α (1 µM): 1503.6 pg/mL and 1525.6 pg/mL
- CCl2, % reduction (3 µM): -16%
- CCl2, Mean (3 µM): 41389 pg/mL
- GM-CSF % reduction (3 µM): 51%
- GM-CSF Mean (3 µM): 681 pg/mL
- IL-1β % reduction (3 µM): 12%
- IL-1β Mean (3 µM): 168 pg/mL
- IL-6 % reduction (3 µM): 0.505%
- IL-6 Mean (3 µM): 76992 pg/mL
- TNF-α % reduction (3 µM): -11%
- TNF-α Mean (3 µM): 1517 pg/mL
- CCl2 (3 µM): 47549.1 pg/mL and 35229.8 pg/mL
- CXCL1 (3 µM): 27.5 pg/mL and 27.6 pg/mL
- GM-CSF (3 µM): 645.8 pg/mL and 715.5 pg/mL
- IL-1β (3 µM): 151.548 pg/mL and 184.21 pg/mL
- IL-6 (3 µM): 76816 pg/mL and 77168 pg/mL
- TNF-α (3 µM): 1470.9 pg/mL and 1563.2 pg/mL
- CCl2, % reduction (10 µM): -20%
- CCl2, Mean (10 µM): 42850 pg/mL
- GM-CSF % reduction (10 µM): 25%
- GM-CSF Mean (10 µM): 1034 pg/mL
- IL-1β % reduction (10 µM): 16%
- IL-1β Mean (10 µM): 160 pg/mL
- IL-6 % reduction (10 µM): 11%
- IL-6 Mean (10 µM): 69181 pg/mL
- TNF-α % reduction (10 µM): -18%
- TNF-α Mean (10 µM): 1616 pg/mL
- CCl2 (10 µM): 49014.8 pg/mL and 36684.7 pg/mL
- CXCL1 (10 µM): 35.9 pg/mL and 33.8 pg/mL
- GM-CSF (10 µM): 1124.4 pg/mL and 943.6 pg/mL
- IL-1β (10 µM): 178.332 pg/mL and 142.562 pg/mL
- IL-6 (10 µM): 73782 pg/mL and 64579 pg/mL
- TNF-α (10 µM): 1578.1 pg/mL and 1653.1 pg/mL
- CCl2, % reduction (30 µM): -35%
- CCl2, Mean (30 µM): 47970 pg/mL
- GM-CSF % reduction (30 µM): -22%
- GM-CSF Mean (30 µM): 1662 pg/mL
- IL-1β % reduction (30 µM): 6%
- IL-1β Mean (30 µM): 179 pg/mL
- IL-6 % reduction (30 µM): 25%
- IL-6 Mean (30 µM): 57940 pg/mL
- TNF-α % reduction (30 µM): -31%
- TNF-α Mean (30 µM): 1789 pg/mL
- CCl2 (30 µM): 51706.3 pg/mL and 44234.6 pg/mL
- CXCL1 (30 µM): 87.9 pg/mL and 85.2 pg/mL
- GM-CSF (30 µM): 1753.9 pg/mL and 1570.0 pg/mL
- IL-1β (30 µM): 181.679 pg/mL and 176.699 pg/mL
- IL-6 (30 µM): 56206 pg/mL and 59673 pg/mL
- TNF-α (30 µM): 1766.5 pg/mL and 1811.5 pg/mL
- CCl2, % reduction (100 µM): 26%
- CCl2, Mean (100 µM): 27179 pg/mL
- GM-CSF % reduction (100 µM): -29%
- GM-CSF Mean (100 µM): 1755 pg/mL
- IL-1β % reduction (100 µM): -71%
- IL-1β Mean (100 µM): 325 pg/mL
- IL-6 % reduction (100 µM): 46%
- IL-6 Mean (100 µM): 42097 pg/mL
- TNF-α % reduction (100 µM): -249%
- TNF-α Mean (100 µM): 4717 pg/mL
- CCl2 (100 µM): 26262.5 pg/mL and 28095.5 pg/mL
- CXCL1 (100 µM): 258.9 pg/mL and 215.6 pg/mL
- GM-CSF (100 µM): 1833.3 pg/mL and 1676.9 pg/mL
- IL-1β (100 µM): 330.455 pg/mL and 319.964 pg/mL
- IL-6 (100 µM): 40652 pg/mL and 43542 pg/mL
- TNF-α (100 µM): 4063.6 pg/mL and 5370.1 pg/mL
- CXCL2 (compound 0.03 µM): 31852.1 pg/mL and 31453.1 pg/mL
- MMP9 (compound 0.03 µM): 895.68 pg/mL and 982.757 pg/mL
- CXCL2 (compound 0.1 µM): 30865.4 pg/mL and 29898.5 pg/mL
- MMP9 (compound 0.1 µM): 770.463 pg/mL and 867.766 pg/mL
- CXCL2 (compound 0.3 µM): 32714.1 pg/mL and 32124.3 pg/mL
- MMP9 (compound 0.3 µM): 798.08 pg/mL and 882.55 pg/mL
- CXCL2 (compound 1 µM): 35082.5 pg/mL and 36713.0 pg/mL
- MMP9 (compound 1 µM): 879.359 pg/mL and 1004.8 pg/mL
- CXCL2 (compound 3 µM): 37039.4 pg/mL and 32794.8 pg/mL
- MMP9 (compound 3 µM): 913.107 pg/mL and 886.534 pg/mL
- CXCL2 (compound 10 µM): 36052.8 pg/mL and 33589.2 pg/mL
- MMP9 (compound 10 µM): 894.885 pg/mL and 781.214 pg/mL
- CXCL2 (compound 30 µM): 37378.3 pg/mL and 38345.7 pg/mL
- MMP9 (compound 30 µM): 446.696 pg/mL and 398.398 pg/mL
- CXCL2 (compound 100 µM): 37906.2 pg/mL and 37582.2 pg/mL
- MMP9 (compound 100 µM): 104.703 pg/mL and 78.135 pg/mL
